Measured values reported in PubChem BioAssay AID1963967 (Molecular Pharmacology Branch, DTP, NCI, 2024).

System: 855422-203-R-J1-PDC spheroids with HUVEC/MSC, viability
Experiment: Anticancer human tumor 855422-203-R-J1-PDC patient-derived bladder carcinoma cell line growth inhibition [PI3K]
Conditions: for IC50: curve of first compound; for viability, T/C: stronger effect = lower value
In short: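 Tumor cells grown as multi-cell spheroids with HUVEC endothelial cells and MSC fibroblast-like stroma were treated with targeted agents combined with inavolisib, alpelisib, duvelisib or copanlisib. Doses fell in half-log steps from near clinical Cmax, else from 10 microM. Viability was measured.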
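Note: agents incubated with spheroids for one week before read-out.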
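Throughout, for viability, T/C: 100% = DMSO vehicle-treated control wells.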

## Cn1ncnc1[C@H]1c2n[nH]c(=O)c3cc(F)cc(c23)N[C@@H]1c1ccc(F)cc1 + CC(Nc1ncnc2nc[nH]c12)c1cc2cccc(Cl)c2c(=O)n1-c1ccccc1
Second compound 0.0316 µM
  IC50: > 0.1 µM
Second compound 0.1 µM
  IC50: > 0.1 µM
Second compound 0.316 µM
  IC50: > 0.1 µM
Second compound 1 µM
  IC50: > 0.1 µM
Second compound 3.16 µM
  IC50: > 0.1 µM
Second compound 10 µM
  IC50: > 0.1 µM
Second compound 0.0316 µM, first compound 0.000316 µM
  viability, T/C: 107%
Second compound 0.0316 µM, first compound 0.001 µM
  viability, T/C: 98%
Second compound 0.0316 µM, first compound 0.00316 µM
  viability, T/C: 106%
Second compound 0.0316 µM, first compound 0.01 µM
  viability, T/C: 97.8%
Second compound 0.0316 µM, first compound 0.0316 µM
  viability, T/C: 109%
Second compound 0.0316 µM, first compound 0.1 µM
  viability, T/C: 100%
Second compound 0.1 µM, first compound 0.000316 µM
  viability, T/C: 121%
Second compound 0.1 µM, first compound 0.001 µM
  viability, T/C: 104%
Second compound 0.1 µM, first compound 0.00316 µM
  viability, T/C: 113%
Second compound 0.1 µM, first compound 0.01 µM
  viability, T/C: 101%
Second compound 0.1 µM, first compound 0.0316 µM
  viability, T/C: 111%
Second compound 0.1 µM, first compound 0.1 µM
  viability, T/C: 104%
Second compound 0.316 µM, first compound 0.000316 µM
  viability, T/C: 106%
Second compound 0.316 µM, first compound 0.001 µM
  viability, T/C: 107%
Second compound 0.316 µM, first compound 0.00316 µM
  viability, T/C: 121%
Second compound 0.316 µM, first compound 0.01 µM
  viability, T/C: 102%
Second compound 0.316 µM, first compound 0.0316 µM
  viability, T/C: 110%
Second compound 0.316 µM, first compound 0.1 µM
  viability, T/C: 107%
Second compound 1 µM, first compound 0.000316 µM
  viability, T/C: 106%
Second compound 1 µM, first compound 0.001 µM
  viability, T/C: 107%
Second compound 1 µM, first compound 0.00316 µM
  viability, T/C: 110%
Second compound 1 µM, first compound 0.01 µM
  viability, T/C: 104%
Second compound 1 µM, first compound 0.0316 µM
  viability, T/C: 104%
Second compound 1 µM, first compound 0.1 µM
  viability, T/C: 104%
Second compound 3.16 µM, first compound 0.000316 µM
  viability, T/C: 96.6%
Second compound 3.16 µM, first compound 0.001 µM
  viability, T/C: 92%
Second compound 3.16 µM, first compound 0.00316 µM
  viability, T/C: 97.9%
Second compound 3.16 µM, first compound 0.01 µM
  viability, T/C: 105%
Second compound 3.16 µM, first compound 0.0316 µM
  viability, T/C: 105%
Second compound 3.16 µM, first compound 0.1 µM
  viability, T/C: 104%
Second compound 10 µM, first compound 0.000316 µM
  viability, T/C: 88.3%
Second compound 10 µM, first compound 0.001 µM
  viability, T/C: 85%
Second compound 10 µM, first compound 0.00316 µM
  viability, T/C: 78.4%
Second compound 10 µM, first compound 0.01 µM
  viability, T/C: 87%
Second compound 10 µM, first compound 0.0316 µM
  viability, T/C: 89.5%
Second compound 10 µM, first compound 0.1 µM
  viability, T/C: 82.3%
